Experimental data reported in patent US20130273138A1, “TRANSDERMAL FORMULATIONS OF GERANYLGERANYLACETONE” (COYOTE PHARMACEUTICALS, INC., priority 2012, published 2013).

Experiment: Dissolution of GGA patch (HPLC refractive index detector)
Assay type: physicochemical
Conditions: 3.2 cm×3 cm patch, 10 mg GGA; 24 hour time point; acetonitrile as the media
Method: The assembly was then clipped to two pins to sink the membrane-patch assembly to the bottom of the vessel and remains at the fixed position.
Two chromatograms (one standard of 0.05 mg/mL and one sample taken at 24 hour time point) in FIGS. 1A and 1B illustrate the dissolution results. Nearly all GGA in the membrane was released according to this specific dissolution setting (i.e., acetonitrile as the media).

- GGA released from patch (dissolution): Nearly all
SMILES: CC(=O)CC/C=C(\C)CC/C=C(\C)CC/C=C(\C)CCC=C(C)C [GGA, Geranylgeranylacetone]
